Source: patent publication US5652366A, “DI (1R)-(-)camphosulfonic acid) salt, preparation thereof and use thereof” (Rhone-Poulenc Rorer Pharmaceuticals Inc., priority 1995, dated 1997)
Where two headings read alike, the source gives them in different places. Blank lines part the entries; values can stand above or below the compound they belong to.

What was measured:
[1] = tested on: normotensive anesthetized rat; assay: In vivo mean arterial pressure and heart rate in normotensive anesthetized rat; settings: iv
Protocol: Normotensive rats were anesthetized with sodium pentobarbital (50 mg/kg, j.p.) and placed on a heated surgical table. Cannulas were inserted into the femoral artery and […] to allow the measurement of arterial pressure and to facilitate the intravenous administration of test compounds. The animals was allowed to equilibrate for 10 minutes after surgery. Mean arterial pressure was continuously measured and recorded and heart rate was monitored using the arterial pressure pulse to trigger a cardiotachometer. After baseline parameters were established and recorded, increasing doses (1, 3, 10, 30, 100, 300 and 1000 μg/kg) of the compound of the invention to be tested were administered intravenously. Maximal changes in the cardiovascular parameters were observed after each dose of the adenosine agonist. Only one compound was administered per rat.

swine coronary arteries = assay: In vitro vasorelaxation in isolated swine coronary arteries (PGF2α-contracted rings); assay type: cell-based; settings: Sus scrofa; for EC50: Table II; for IC50: read-out: Vasorelaxation (IC50)
Protocol: Swine coronary arteries were obtained from a local slaughter house, dissected carefully and cleaned of fat, blood and adhering tissue. Rings approximately 2-3 mm wide were cut and transferred to water-jacketed tissue baths (10 ml) filled with warm (37° C.), oxygenated (O2 /CO2 :95%/5%) Krebs-Henseleit buffer and mounted on L-shaped hooks between stainless steel rods and a force transducer. […] Rings were equilibrated for 90 minutes with frequent buffer changes at a resting tension of 5 g In order to assure optimal tension development, arterial rings were primed twice with 36 mM KCl and once with 10 μm. PGF2α, before being exposed to 3 μM PGF2α. […] Tension achieved with 3 μM PGF2α was considered .equivalent to 100%; all other values were expressed as a percentage of that maximum.

rat adipocytes = assay: In vitro lipolysis assay in rat adipocytes (glycerol production); assay type: cell-based; settings: for EC50 / inhibition at 0.1 µM / inhibition at 1 µM: Rattus norvegicus, Adipocyte; for EC50: read-out: EC50 (50% inhibition of glycerol production); for inhibition at 0.1 µM / inhibition at 1 µM: read-out: % Inhibition of glycerol production
Protocol: Adipose tissue is removed from anesthetized rats and rinsed twice in incubation medium (2.09 g sodium bicarbonate and 0.04 g EDTA, disodium salt, in 1 L Krebs buffer). Each rat (300-350 g) yields approximately 4 ml of adipose tissue. The adipose tissue (35 ml) is cut into small pieces with scissors and washed with incubation medium (50 ml). The mixture is poured into the barrel of a 50 ml syringe to which is attached a short piece of clamped tubing instead of a needle. The aqueous phase is allowed to drain. A second wash with incubation medium is passed through the syringe. The tissue is added to 50 ml of collagenase solution (collagenase(90 mg), bovine serum albumin (BSA) (500 mg), and 0.1 M calcium chloride solution (1 ml), in incubation medium (50 ml)) in a 1 L bottle. The mixture is shaken in an environmental at 37° C. for about 60 minutes under an atmosphere of 95% oxygen/5% carbon dioxide to effect digestion of the tissue. The dispersed cells are poured through 2 layers of cheese cloth into a 100 ml plastic beaker. The undigested clumps in the cloth are rinsed once with incubation medium (20 ml). The cells in the beaker are centrifuged in 2 plastic tubes for 30 seconds at room temperature at 300 rpm. The aqueous phase is aspirated from beneath the loosely packed layer of floating fat cells and discarded. The adipocytes are gently poured into a 250 ml plastic beaker containing 100 ml of rinse solution (1 g BSA per 100 ml incubation medium). After gentle stirring the centrifugation step is repeated. Another wash with rinse solution follows. The cells are pooled and their volume is estimated with a graduated cylinder. The adipocytes are diluted in twice their volume of assay buffer (incubation medium (120 ml), BSA (1.2 g), pyruvic acid (13 mg)).
The assay is performed in 20 ml plastic scintillation vials and the total assay volume is 4.2 ml. Assay buffer (2.5 ml), diluted adipocytes (1.5 ml), and a solution of the compound to be tested (12.3 μL) adenosine agonist (12.3 μl; varying concentration) is incubated in the environmental shaker for 15 minutes, then the reaction is started with norepinephrine solution (41.2 μL) (10 nM, in a carrier solution containing water (100 ml), BSA (4 mg), and 0.1 M EDTA (20 I. LL))and adenosine deaminase (1 μg/ml, 41.2 μl). After sixty minutes in the shaker the reaction is terminated by putting the vials on ice. […] The hard lipid layer is removed by aspiration and the aqueous layer is assayed for glycerol (400 μl of sample). The positive control is done in the absence of any adenosine agonist, substituting water in place of the solution to be tested.

[2] = dose lowering heart rate by 25%, read-out: Blood Press/Heart Rate Anesthetized Rat HR/ED25
[3] = dose lowering mean arterial pressure by 25%, read-out: Blood Press/Heart Rate Anesthetized Rat MAP/ED25
[4] = 50% reduction in tension, 3 μM PGF2α, read-out: Vasorelaxation in Swine Coronary Artery/IC50
[5] = read-out: Vasorelaxation in Swine Coronary Artery/IC50 (μM), 50% reduction in tension, 3 μM PGF2α
[6] = 0.1 μM, versus positive control

SMILES: OC[C@H]1O[C@@H](n2cnc3c(N[C@@H]4CC=CC[C@H]4c4ccsc4)ncnc32)[C@H](O)[C@@H]1O (relative stereo) [Example 8, N^6-[trans-2-(thiophen-3-yl)-cyclohex-4-en-1-yl]adenosine]
ED25 [1, 2]: 0.023 mg/kg | ED25 [1, 3]: 0.01 mg/kg

EC50 (swine coronary arteries; [4]): 0.64 µM
SMILES: CCNC(=O)[C@H]1C[C@@H](n2cnc3c(NCCc4nccs4)ncnc32)[C@H](O)[C@@H]1O (relative stereo) [Example 25, (±)-N^6-[2-(2"-thiazolyl)ethyl]-carbocyclic adenosine-5'-N-ethyl carboxamide]

SMILES: CCNC(=O)[C@H]1C[C@@H](n2cnc3c(NCCc4cccs4)ccnc32)[C@H](O)[C@@H]1O (relative stereo) [Example 30, (±)-N6-[1-(thiopheny-2-yl)ethan-2-yl]-N'-1-deazaaristeromycin-5'-N-ethyl carboxamide]
ED25 [1, 2]: > 0.01 mg/kg | ED25 [1, 3]: 0.006 mg/kg | EC50 (swine coronary arteries; [5]): 12.1 µM

SMILES: CO[C@@H]1[C@H](O)[C@@H](CO)O[C@H]1n1cnc2c(N[C@@H]3CC=CC[C@H]3c3cccs3)ncnc21 (relative stereo) [Example 49, N^6-[trans-5-(2-thienyl)cyclohex-1-en-4-yl]-2'-O-methyladenosine]
EC50 (rat adipocytes): 18.6 nM | inhibition at 0.1 µM (rat adipocytes; [6]): 85% | EC50 (swine coronary arteries; [5]): 9.81 µM

SMILES: CCNC(=O)[C@H]1O[C@@H](n2cnc3c(NC4CC=CCC4c4cccs4)ncnc32)[C@H](O)[C@@H]1O (single isomer, unassigned) [Example 5, N6-[trans-2-(thiophen-2-yl)cyclohex-4-en-l-yl]adenosine-5'-N-ethylcarboxamide]
EC50 (swine coronary arteries; [5]): 0.068 µM

SMILES: CCNC(=O)[C@H]1O[C@@H](n2cnc3c(N)nc(NCCc4ccc(CCC(=O)O)cc4)nc32)[C@H](O)[C@@H]1O [CGS21680, reference compound]
inhibition at 1 µM (rat adipocytes): 0% | antilipolytic activity (rat adipocytes; in words): do not exhibit antilipolytic activity | IC50 (swine coronary arteries): 80 nM

SMILES: OC[C@H]1O[C@@H](n2cnc3c(NC4CCCC4)ncnc32)[C@H](O)[C@@H]1O [CPA, N-cyclopentyladenosine, reference compound]
inhibition at 0.1 µM (rat adipocytes): 97% | inhibition at 1 µM (rat adipocytes): 100% | EC50 (rat adipocytes): 0.31 nM | IC50 (swine coronary arteries): 3180 nM

EC50 (swine coronary arteries; [4]): 3.3 µM
SMILES: CCNC(=O)[C@H]1C[C@@H](n2cnc3c(N[C@H](C)Cc4ccc(Cl)s4)[n+]([O-])cnc32)[C@H](O)[C@@H]1O [Example 35, (2S)-2α,3α-dihydroxy-4β-[N6-[2-(5-chloro-2-thienyl)-(1R)-1-methylethyl]amino-9-adenyl]cyclopentane-1β-N-ethylcarboxamide-N^1-oxide]

EC50 (swine coronary arteries; [4]): 0.45 µM
SMILES: CCNC(=O)[C@H]1C[C@@H](n2cnc3c(NC(CC)Cc4sccc4Cl)ccnc32)[C@H](O)[C@@H]1O (stereo partly drawn) [Example 37, [1S-[1α,2β,3β,4α]]-4-[7-[[2-(3-chloro-2-thienyl)-1-ethylethyl]amino]-3 H-imidazo[4,5-b]pyridin-3-yl]-N-ethyl-2,3-dihydroxycyclopentane-carboxamide]

EC50 (swine coronary arteries; [4]): 0.47 µM
SMILES: CCNC(=O)[C@H]1C[C@@H](n2cnc3c(NC(Cc4cccs4)C(C)C)ccnc32)[C@H](O)[C@@H]1O (stereo partly drawn) [Example 38, [1S-[1α,2β,3β,4α]]-4-[7-[[2-(2-thienyl)-1-isopropylethyl]amino]-3 H-imidazo[4,5-b]pyridin-3-yl]-N-ethyl-2,3-dihydroxycyclopentanecarboxamide]

EC50 (swine coronary arteries; [4]): 0.283 µM
SMILES: CCNC(=O)[C@H]1C[C@@H](n2cnc3c(N[C@H](C)Cc4cccs4)ccnc32)[C@H](O)[C@@H]1O [Example 40, [1S-[1α,2β,3β,4α(S*)]]-4-[7-[[2-(2-thienyl)-1-methylethyl]amino]-3 H-imidazo[4,5-b]pyridin-3-yl]-N-ethyl-2,3-dihydroxycyclopentane-carboxamide]

SMILES: CCNC(=O)[C@H]1C[C@@H](n2cnc3c(N[C@H](CC)Cc4ccc(Cl)s4)ccnc32)[C@H](O)[C@@H]1O [Example 41, [1S-[1α,2β,3β,4α]]-4-[7-[[2-(5-chloro-2-thienyl)-1-ethylethyl]amino]-3 H-imidazo[4,5-b]pyridin-3-yl]-N-ethyl-2,3-dihydroxycyclopentane-carboxamide]
inhibition at 0.1 µM (rat adipocytes; [6]): 88%

SMILES: CCNC(=O)[C@H]1C[C@@H](n2cnc3c(N[C@H](C)Cc4ccc(Cl)s4)ncnc32)[C@H](OC(=O)OC)[C@@H]1OC(=O)OC [Example 42, (2S)-2α,3α-bis-methoxycarbonyloxy-4β-[N6-[2-(5-chloro-2-thienyl)-(1R)-1-methylethyl]amino-9-adenyl]cyclopentane-1β-N-ethylcarboxamide]
EC50 (swine coronary arteries; [5]): 2.44 µM

SMILES: CCNC(=O)[C@H]1C[C@@H](n2cnc3c(N[C@H](C)Cc4ccc(Cl)s4)ncnc32)[C@@H]2OC(OCC)O[C@@H]21 (stereo partly drawn) [Example 43, (2S)-2α,3α-dihydroxy-4β-[N6-[2-(5-chloro-2-thienyl)-(1R)-1-methylethyl]amino-9-adenyl]cyclopentane-1β-N-ethylcarboxamide ethoxymethylene acetal]
EC50 (swine coronary arteries; [5]): 7.83 µM

EC50 (swine coronary arteries; [4]): 4.1 µM
SMILES: CCNC(=O)[C@H]1C[C@@H](n2cnc3c(N[C@H](C)Cc4ccc(Cl)s4)ncnc32)[C@H](OC(=O)NC)[C@@H]1OC(=O)NC [Example 45, (2S)-2α,3α-bis-methylcarbamoyloxy-4β-[N6-[2-(5-chloro-2-thienyl)-(1R)-1-methylethyl]amino-9-adenyl]cyclopentane-1β-N-ethylcarboxamide]

SMILES: CCNC(=O)[C@H]1C[C@@H](n2cnc3c(N[C@H](C)Cc4ccc(Cl)s4)ncnc32)[C@@H]2OC(=S)O[C@@H]21 [Example 46, (2S)-2α,3α-dihydroxy-4β-[N6-[2-(5-chloro-2-thienyl)-(1R)-1-methylethyl]amino-9-adenyl]cyclopentane-1β-N-ethylcarboxamide-2,3-thiocarbonate]
EC50 (rat adipocytes; unit nM in cell): 4 nM | EC50 (swine coronary arteries; [5]): 3.52 µM

EC50 (rat adipocytes; unit nM in cell): 0.63 nM | EC50 (swine coronary arteries; [4]): 5.7 µM
SMILES: CO[C@@H]1[C@H](O)[C@@H](CO)O[C@H]1n1cnc2c(N[C@H](C)Cc3sccc3Cl)ncnc21 [Example 47, N^6-[2-(3-chloro-2-thienyl)-(1R)-1-methylethyl]-2'-O-methyladenosine]
inhibition at 0.1 µM (rat adipocytes; [6]): 94%

SMILES: CO[C@@H]1[C@H](O)[C@@H](CO)O[C@H]1n1cnc2c(N[C@H](C)Cc3ccc(Cl)s3)ncnc21 [Example 48, N^6-[2-(5-chloro-2-thienyl)-(1R)-1-methylethyl]-2'-O-methyladenosine]
EC50 (rat adipocytes): 1.86 nM | inhibition at 0.1 µM (rat adipocytes; [6]): 88%

SMILES: CCNC(=O)[C@H]1O[C@@H](n2cnc3c(N)ncnc32)[C@H](O)[C@@H]1O [NECA, N-ethylcarboxamidoadenosine, reference compound]
EC50 (rat adipocytes): 2.5 nM

SMILES: C[C@H](Cc1ccccc1)Nc1ncnc2c1ncn2[C@@H]1O[C@H](CO)[C@@H](O)[C@H]1O [R-PIA, R-phenylisopropyladenosine, reference compound]
EC50 (rat adipocytes): 1 nM | IC50 (swine coronary arteries): 760 nM
